The source of these data is ChEMBL document CHEMBL1156305 (Bioorg Med Chem Lett, 2010).

Calls of active or inactive are those of the source. The rule behind the calls is not given here.

The target of data set [1] is T1, 5-hydroxytryptamine receptor 2C (Homo sapiens, UniProt P28335).
T1 sequence (P28335 whole entry): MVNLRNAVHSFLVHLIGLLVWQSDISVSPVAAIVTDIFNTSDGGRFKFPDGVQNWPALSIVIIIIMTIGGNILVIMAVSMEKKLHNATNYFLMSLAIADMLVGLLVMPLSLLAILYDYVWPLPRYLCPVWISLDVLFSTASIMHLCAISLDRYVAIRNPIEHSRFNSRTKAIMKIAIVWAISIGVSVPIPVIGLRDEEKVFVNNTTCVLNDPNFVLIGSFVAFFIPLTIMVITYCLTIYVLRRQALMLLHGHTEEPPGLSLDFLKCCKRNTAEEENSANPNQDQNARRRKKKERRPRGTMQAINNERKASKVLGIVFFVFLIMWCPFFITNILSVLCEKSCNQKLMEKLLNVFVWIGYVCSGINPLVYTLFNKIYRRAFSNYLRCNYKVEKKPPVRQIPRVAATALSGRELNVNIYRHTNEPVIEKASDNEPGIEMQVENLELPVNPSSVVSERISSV
Put plainly: Binding affinity to 5HT2C receptor.

Data set [2] deals with T2, 5-hydroxytryptamine receptor 2B (Homo sapiens, UniProt P41595). Kind of data set: Binding affinity to 5HT2B receptor.
T2 sequence (P41595 whole entry): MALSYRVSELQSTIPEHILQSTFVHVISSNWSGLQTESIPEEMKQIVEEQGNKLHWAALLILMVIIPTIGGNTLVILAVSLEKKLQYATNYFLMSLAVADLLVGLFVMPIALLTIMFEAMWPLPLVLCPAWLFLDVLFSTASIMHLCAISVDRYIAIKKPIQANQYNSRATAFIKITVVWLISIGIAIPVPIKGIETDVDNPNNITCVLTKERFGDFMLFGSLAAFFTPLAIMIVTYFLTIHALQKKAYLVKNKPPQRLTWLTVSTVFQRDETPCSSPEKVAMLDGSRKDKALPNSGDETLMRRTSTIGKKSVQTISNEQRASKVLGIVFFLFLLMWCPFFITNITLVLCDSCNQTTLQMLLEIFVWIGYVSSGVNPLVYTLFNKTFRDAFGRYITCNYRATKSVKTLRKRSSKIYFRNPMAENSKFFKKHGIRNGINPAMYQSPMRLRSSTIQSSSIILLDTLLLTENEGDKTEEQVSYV
Data set [3] addresses T1, 5-hydroxytryptamine receptor 2C. Kind of data set: Agonist activity at 5HT2C receptor. The format is functional.
The target of data set [4] is T3, 5-hydroxytryptamine receptor 2C (Homo sapiens) (UniProt P28335).
T3 sequence (whole entry): T1 sequence (P28335 whole entry)
Kind of data set: Agonist activity at 5HT2C receptor relative to control. Details: concentration or dose not given beside the values. It is filed as functional.

The nature of data set [5]: Ratio of total drug level in brain to plasma in Sprague-Dawley rat. The following applies: brain and plasma. The format is ADME, cell-free.
The target in data set [6] is T2, 5-hydroxytryptamine receptor 2B. Put plainly: Agonist activity at 5HT2B receptor. It is filed as functional.
The species named for a further data set is Macaca mulatta. Put plainly: Activity at MAPK in monkey heart valve […] cells.
For data set [7], the species on record is Rattus norvegicus. Kind of data set: Effect on 5HT2A receptor-mediated head twitches in rat. The format is functional, organism-based.
The nature of data set [8]: Ratio of free drug level in brain to plasma in Sprague-Dawley rat. The format is ADME, cell-free. The following applies: brain and plasma.
The nature of data set [9]: Bioavailability in rat. It is filed as ADME, organism-based. The following applies: in vivo.
Data set [10] relates to Rattus norvegicus. Put plainly: Inhibition of spontaneous nocturnal food intake in po dosed Sprague-Dawley rat measured up to 840 mins. The format is functional, organism-based.
The nature of data set [11]: Selectivity ratio of Ki for 5HT2B receptor to Ki for 5HT2C receptor.
Another data set deals with Plasma. Kind of data set: Fraction unbound in Sprague-Dawley rat plasma. The format is ADME, cell-free.
Data set [12] has as its target T4, 5-hydroxytryptamine receptor 2A (Homo sapiens, UniProt P28223). Put plainly: Agonist activity at 5HT2A receptor. The format is functional.
Data set [13] in a line: Ratio of drug level in RBC to plasma in Sprague-Dawley rat. The following applies: in vivo. It is filed as ADME.
The subject of data set [14] is Rattus norvegicus. Put plainly: Inhibition of spontaneous nocturnal food intake in po dosed Sprague-Dawley rat measured up to 25 hrs. It is filed as functional, organism-based.
For data set [15], the target named is T4, 5-hydroxytryptamine receptor 2A. Put plainly: Binding affinity to 5HT2A receptor.
For data set [16], the species on record is Rattus norvegicus. Kind of data set: Ex vivo agonist activity at 5HT2B receptor in rat stomach fundus. The format is functional, organism-based.
Data set [17] has as its target T4, 5-hydroxytryptamine receptor 2A. Put plainly: Agonist activity at 5HT2A receptor relative to control. The format is functional.
Data set [18] is described as follows: Half life in human hepatocytes. The format is ADME, cell-based, Liver, Hepatocyte.
Data set [19] is described as follows: Half life in human liver microsomes. It is filed as ADME, Microsome. In general terms: Liver microsomes are vesicles of endoplasmic reticulum, rich in cytochrome P450 enzymes.
Data set [20] in a line: Bioavailability in dog. The format is ADME, organism-based, Canis lupus familiaris. To be noted: in vivo.

T4 sequence (P28223 whole entry): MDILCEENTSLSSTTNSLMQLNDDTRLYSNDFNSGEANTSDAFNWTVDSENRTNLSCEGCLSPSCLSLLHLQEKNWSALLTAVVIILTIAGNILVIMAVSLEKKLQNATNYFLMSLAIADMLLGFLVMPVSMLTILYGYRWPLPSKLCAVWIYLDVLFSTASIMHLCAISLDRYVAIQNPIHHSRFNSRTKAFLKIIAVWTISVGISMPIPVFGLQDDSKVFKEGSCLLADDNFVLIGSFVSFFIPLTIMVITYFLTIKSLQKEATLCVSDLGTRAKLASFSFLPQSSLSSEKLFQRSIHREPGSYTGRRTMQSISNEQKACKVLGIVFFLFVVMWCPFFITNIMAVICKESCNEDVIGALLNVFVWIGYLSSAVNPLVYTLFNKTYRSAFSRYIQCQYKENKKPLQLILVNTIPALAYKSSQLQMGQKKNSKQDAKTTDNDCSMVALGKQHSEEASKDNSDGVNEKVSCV

For the compound `O=C(NCc1ccc(-c2ccc(Cl)cc2)cc1F)N1CCNCC1`, the Ki (usually a dissociation constant, usually derived from enzyme kinetics or from competition with a known ligand) in data set [1] was 0.004 µM; in [2] (read-out: Ki), 3.5 µM.

The compound `C[C@@H]1CNC[C@H](C)N1C(=O)OCc1ccccc1` displayed a Ki in [1] of 0.083 µM.

Turning to `O=C(NCc1ccc(C2CCCCC2)cc1)[C@@H]1CCCN1`, the EC50 – broadly, the concentration that produces a half-maximal response – in data set [3] was 0.088 µM. In data set [4], this compound showed an Activity of 53%. The results for the Ki in data set [1] and in [2] (read-out: Ki) were 0.0044 µM and 4.12 µM, respectively.

Consider `COc1cc(OC2CCC(C)(C)CC2)c(F)cc1CNC(=O)[C@@H]1CCCN1`, for which, in data set [5], the Kp (usually tissue or fluid exposure divided by exposure in the circulation) came to 10. Moreover, the figures for the EC50 in data set [6], in data set [3] and in [12] were above 10 µM, 0.0023 µM and 0.44 µM, respectively. Further, the outcome in the data set listed under Macaca mulatta, in the data set listed under Rattus norvegicus [7] and in the data set filed under Rattus norvegicus [16] was inactive. In addition, the Kp uu in [8] turned out to be 0.4. The bioavailability in [9] and in data set [20] was 5.5% each time. Further, the Activity entry in the data set with Rattus norvegicus [10] is “Dose-dependent effect”; in data set [4] it was 95%; in the data set with Rattus norvegicus [14], “Dose-dependent effect”; in data set [17] it was 76%. Also, the Ratio Ki in data set [11] was determined as 10000. In the data set on Plasma, this compound gave a fraction unbound of 3.6%. Also, in data set [13], the Ratio is 0.7. Further, the Ki in data set [1] amounted to 0.0009 µM; in [15] (read-out: Ki) it was 0.0128 µM; in data set [2] (read-out: Ki), 3.94 µM. For the same compound, the half-life – broadly, how long it takes for the measured level to halve – came to 7.33 h in data set [18] and 1.67 h in [19].

In data set [3], `O=C(NCc1ccc(-c2cc(Cl)cc(Cl)c2)cc1)[C@@H]1CCCN1` gave an EC50 of 0.183 µM. This compound had an Activity in data set [4] of 65%. Besides, the Ki in data set [1] was 0.008 µM.

With `Cc1noc(C)c1COc1cc(F)c(COC(=O)N2[C@H](C)CNC[C@@H]2C)c(F)c1`, the inhibition constant (Ki) was 0.043 µM in data set [1] and above 10 µM in [2] (read-out: Ki).

`O=C(NCc1ccc(OC(F)(F)F)cc1)C1CCNC1` (centres undefined) registered a Ki in data set [1] of 0.643 µM.

Turning to `O=C(NCc1ccc(OCc2ccccc2)cc1)[C@@H]1CCCN1`, a half-maximal response in data set [3] (EC50) required 0.073 µM. The Activity in data set [4] worked out at 40%. Moreover, the Ki in [1] is 0.02 µM; in [2] (read-out: Ki), 1.72 µM.

As for `NCc1cccc(C(=O)NCc2ccc(OC(F)(F)F)cc2)c1`, in data set [1], the affinity, expressed as Ki, was 0.585 µM.

Consider `O=C(NCc1ccc(OC(F)(F)F)cc1)[C@@H]1CCCN1`, for which, in data set [11], the Ratio Ki is above 1000. Moreover, the Ki in data set [1] is 0.324 µM; in data set [2] (read-out: Ki), above 10 µM.

With `COc1cc(OCC2CCCCC2)c(F)cc1CNC(=O)[C@@H]1CCCN1`, the EC50 was 4.03 µM in [6], 0.00497 µM in data set [3] and 0.5 µM in data set [12]. This compound registered an Activity in [4] of 85%. Moreover, the inhibitory constant (Ki) in data set [1] was 0.0017 µM; in [15], “Not Active”; in [2], “Not Active”.

Take `CC1(C)CCC(Oc2cc(F)c(CNC(=O)[C@@H]3CCCN3)cc2F)CC1`: the EC50 in data set [6] is above 10 µM; in data set [3], 0.001 µM; in data set [12], 0.13 µM. Further, the Activity in data set [4] stood at 88%; in data set [17], 98%. Besides, the Ki was determined as 0.0018 µM in data set [1], 0.0137 µM in [15] (read-out: Ki) and 1.67 µM in data set [2] (read-out: Ki).

Take `C[C@H]1CC[C@@H](Oc2c(F)cc(CNC(=O)[C@@H]3CCCN3)cc2F)CC1`: the EC50 in data set [6] was above 10 µM; in data set [3] it was 0.044 µM; in [12] it was 0.153 µM. In addition, in [4], the Activity came out at 46%. Further, the Ki in [1] was 0.025 µM; in data set [15], “Not Active”; in data set [2], “Not Active”.

With `O=C(NCc1ccc(Oc2cccc(F)c2)cc1)[C@@H]1CCCN1`, the EC50 in data set [3] amounted to 0.038 µM. Moreover, in data set [4], the Activity was found to be 46%. Further, the Ki in data set [1] worked out at 0.023 µM; in data set [2] (read-out: Ki), 2.4 µM.
